Results from patent US8921373B2, “Compounds having TRPV1 antagonistic activity and uses thereof” (Shionogi & Co., Ltd., priority 2010, dated 2014).

Legend:
[1] = Measurement of body temperature increase (rectal body temperature); type: in vivo, rat; settings: Crl/SD rats, oral, 1 mg/mL at 10 mL/kg
Method: Test Animals: Selection of rats (Crl/SD rats, 7 weeks, male) for this study was based on rectal body temperature measured during the morning of the day of dosing. In addition, animals selected for this study were acclimated to both the rectal measurement procedure and to being handled and dosed to minimize spontaneous, stress-induced, increases in body temperature. The study was conducted in the animal care laboratories where the room temperature and humidity were kept. The rats were free to move and food and water during the study. Each rat was numbered with color line on the tail, housed in each cage and permitted the normal range of movement. Immediately before each body temperature was measured, they transferred to a single cage at each measurement. To reduce stress which affected the body temperature, the rats were covered with towels at the measurement. The thermistor probe was then carefully inserted into the rectum of each rat and left in place until the value on the digital display had stabilized.
Assays: On the day before dosing, rectal body temperatures were measured at 9:00, 10:00, 11:00, 12:30, 13:30, 14:30 and 15:30 to familiarize the animals with the measurement procedure prior to administration of the test or control treatments. The rats were also dosed by oral gavage without vehicle at 12:30 to acclimate and familiarized the animals with the handling and dosing procedure.
On the day of dosing, only rats whose rectal body temperatures were within the range of 37.0° C. to 37.7° C. were selected for this study. Rectal body temperatures were measured at 9:00, 10:00 and 11:00. Rats whose rectal body temperatures were over 37.9° C. at 10:00, and were outside the range of 37.0° C. to 37.7° C. at 11:00 were excluded from the study. The selected rats were divided to several groups based on their rectal body temperatures at 11:00. Rectal body temperatures of the selected rats were measured again at 12:30, and any rats whose rectal body temperature was 38.0° C. or greater were excluded from the study.
Following the group assignment, test compounds or vehicle was administrated to the rats. Each test compound was dissolved in 0.5% methylcellurose and the final concentration of the compound was adjusted to 1 mg/mL. Test compound was orally administrated in a volume 10 mL/kg once. 10 mL/kg of vehicle (0.5% methylcellurose) was administered to the vehicle group. The rectal body temperatures were measured 0.5, 1 and 2 hrs after the administration. The study was conducted in the animal care laboratories where the room temperature and humidity were kept.
Body temperature increase (ΔTb) was calculated from the difference from an average of the vehicle group at each time point.

[2] = system: FCA-induced inflammation of the rat hind paw; test: Freund's complete adjuvant (FCA) model of inflammatory pain, reversal of hyperalgesia; type: in vivo; settings: rats
Method: Test Animals: Each experiment uses rats weighing between 200-260 g at the start of the experiment. The rats are group-housed and have free access to food and water at all times, except prior to oral administration of a compound of Formula I when food is removed for 16 hours before dosing. A control group acts as a comparison to rats treated with a compound of Formula I. The control group is administered the carrier for the compound of Formula I. The volume of carrier administered to the control group is the same as the volume of carrier and compound of Formula I administered to the test group.
Inflammatory Pain: To assess the actions of the compounds of Formula I on the treatment or prevention of inflammatory pain the Freund's complete adjuvant (“FCA”) model of inflammatory pain is used. […] 24 hour post injection, the animal is assessed for response to noxious mechanical stimuli by determining the PWT, or to noxious thermal stimuli by determining the PWL, as described below. […] Responses to noxious mechanical or thermal stimuli are then determined 1, 3, 5 and 24 hours post administration. […]
Response to Mechanical Stimuli as an Assessment of Mechanical Hyperalgesia: The paw pressure assay can be used to assess mechanical hyperalgesia. For this assay, hind paw withdrawal thresholds (PWT) to a noxious mechanical stimulus are determined using an analgesymeter (Model 7200, commercially available from Ugo Basile of Italy) as described in C. […] PWT is determined once for each rat at each time point and only the affected (ipsilateral) paw is tested.
Response to Thermal Stimuli as an Assessment of Thermal Hyperalgesia: The plantar test can be used to assess thermal hyperalgesia. For this test, hind paw withdrawal latencies (PWL) to a noxious thermal stimulus are determined using a plantar test apparatus (commercially available from Ugo Basile of Italy) following the technique described by K. Hargreaves et al., “A New and Sensitive Method for Measuring Thermal Nociception in Cutaneous Hyperalgesia,” Pain 32(1):77-88 (1988). […] Three latencies are determined at each time point and averaged. […]

Body temperature increase [1]: less than 0.5 °C
Compound: Cc1cc(NC(=O)N2CCC(F)(c3ncc(C[C@H](O)CO)cc3F)CC2)ccc1C(F)(F)F [ACQ, (S)-4-(5-(2,3-dihydroxypropyl)-3-fluoropyridin-2-yl)-4-fluoro-N-(3-methyl-4-(trifluoromethyl)phenyl)piperidine-1-carboxamide]
Percentage reversal of hyperalgesia, % Reversal (3 mg/Kg, 3 hours post administration) [2]: 41.7%
